Reference: US12655116B2, “Substituted isophthalic acid diamides” (Bayer Aktiengesellschaft, priority 2020, dated 2026)

Columns and labels:
AMARE [1] = assay: Pre-emergence herbicidal action against AMARE; assay type: in vivo, Amaranthus retroflexus
Description: (§1) Seeds of monocotyledonous and dicotyledonous weed plants and crop plants are laid out in sandy loam soil in wood-fiber pots and covered with soil. The compounds of the invention, formulated in the form of wettable powders (WP) or as emulsion concentrates (EC), are then applied to the surface of the covering soil in the form of an aqueous suspension or emulsion at a water application rate equivalent to 600 to 800 l/ha, with addition of 0.2% wetting agent. After the treatment, the pots are placed in a greenhouse and kept under good growth conditions for the trial plants. The damage to the test plants is scored visually after a test period of 3 weeks by comparison with untreated controls (herbicidal activity in percent (%): 100% activity=the plants have died, 0% activity=like control plants). […] The tables below illustrate, in an illustrative manner, the post-emergence herbicidal action of the compounds of the invention, the herbicidal activity being stated in percent.

ABUTH [2] = assay: Pre-emergence herbicidal action against ABUTH; assay type: in vivo, Abutilon theophrasti; conditions: for Pre-emergence action against ABUTH (herbicidal activity): 80 g/ha, scored visually after 3 weeks vs untreated controls (100% = plants have died, 0% = like control plants)
Description: as §1

VERPE = assay: Pre-emergence herbicidal action against VERPE; assay type: in vivo, Veronica persica
Description: as §1

AMARE [3] = assay: Post-emergence herbicidal action against AMARE; assay type: in vivo, Amaranthus retroflexus; conditions: 20 g/ha, visual assessment about 3 weeks after treatment, 100% = plants have died, 0% = like control plants
Method: (§2) Seeds of monocotyledonous and dicotyledonous weed and crop plants are laid out in sandy loam soil in wood-fiber pots, covered with soil and cultivated in a greenhouse under good growth conditions. 2 to 3 weeks after sowing, the test plants are treated at the one-leaf stage. The compounds of the invention, formulated in the form of wettable powders (WP) or as emulsion concentrates (EC), are then sprayed onto the green parts of the plants in the form of an aqueous suspension or emulsion at a water application rate equivalent to 600 to 800 l/ha, with addition of 0.2% wetting agent. After the test plants have been left to stand in the greenhouse under optimal growth conditions for about 3 weeks, the action of the preparations is assessed visually in comparison to untreated controls (herbicidal action in percent (%): 100% activity=the plants have died, 0% activity=like control plants). […] The tables below illustrate, in an illustrative manner, the post-emergence herbicidal action of the compounds of the invention, the herbicidal activity being stated in percent.

ABUTH [4] = assay: Post-emergence herbicidal action against ABUTH; assay type: in vivo, Abutilon theophrasti; conditions: visual assessment about 3 weeks after treatment vs untreated controls
Method: as §2

VIOTR [5] = assay: Pre-emergence herbicidal action against VIOTR; assay type: in vivo, Viola tricolor; conditions: dosage 80 g/ha
Description: as §1

PHBPU = assay: Post-emergence herbicidal action against PHBPU; assay type: in vivo, Pharbitis purpurea; conditions: dosage 20 g/ha
Method: as §2

MATIN = assay: Pre-emergence herbicidal action against MATIN; assay type: in vivo, Matricaria inodora
Description: as §1

SETVI [6] = assay: Post-emergence herbicidal action against SETVI; assay type: in vivo, Setaria viridis
Method: as §2

ALOMY = assay: Pre-emergence herbicidal action against ALOMY; assay type: in vivo, Alopecurus myosuroides; conditions: 80 g/ha, pre-emergence, scored visually after 3 weeks vs untreated controls (100% = plants have died, 0% = like control plants)
Description: as §1

ECHCG [7] = assay: Post-emergence herbicidal action against ECHCG; assay type: in vivo, Echinochloa crus-galli
Method: as §2

DIGSA [8] = assay: Pre-emergence herbicidal action against DIGSA; assay type: in vivo, Digitaria sanguinalis
Description: as §1

ECHCG [9] = assay: Pre-emergence herbicidal action against ECHCG; assay type: in vivo, Echinochloa crus-galli; conditions: 80 g/ha
Description: as §1

DIGSA [10] = assay: Post-emergence herbicidal action against DIGSA; assay type: in vivo, Digitaria sanguinalis; conditions: for Post-emergence action against DIGSA: 20 g/ha; for Post-emergence action against DIGSA in %: 5 g/ha
Method: as §2

SETVI [11] = assay: Pre-emergence herbicidal action against SETVI; assay type: in vivo, Setaria viridis; conditions: dosage 80 g/ha
Description: as §1

AVEFA = assay: Pre-emergence herbicidal action against AVEFA; assay type: in vivo, Avena fatua; conditions: 80 g/ha, pre-emergence
Description: as §1

VIOTR [12] = assay: Post-emergence herbicidal action against VIOTR; assay type: in vivo, Viola tricolor; conditions: 20 g/ha
Method: as §2

[13] = 20 g/ha, scored visually after 3 weeks vs untreated controls, 100% = plants have died, 0% = like control plants
[14] = 80 g/ha, scored visually after 3 weeks vs untreated controls (100% = plants have died, 0% = like control plants)

Compound	Pre-emergence action against AMARE in % (AMARE [1]; [13])	Pre-emergence action against AMARE in % (AMARE [1]; [14])	Pre-emergence action against ABUTH (herbicidal activity) (ABUTH [2])	Pre-emergence action against VERPE in % (VERPE; dosage 80 g/ha)	Post-emergence action at 20 g/ha against AMARE in % (AMARE [3])	Post-emergence action against ABUTH in % (ABUTH [4]; dosage 20 g/ha)	Pre-emergence action against VIOTR in % (VIOTR [5])	Pre-emergence action against MATIN in % (MATIN; dosage 20 g/ha)	Pre-emergence action against MATIN in % (MATIN; dosage 80 g/ha)	Post-emergence action against SETVI in % (SETVI [6]; dosage 20 g/ha)	Post-emergence action against ECHCG in % (ECHCG [7]; dosage 20 g/ha)	Pre-emergence action against DIGSA in % (DIGSA [8]; dosage 20 g/ha)	Pre-emergence action against DIGSA in % (DIGSA [8]; dosage 80 g/ha)	Pre-emergence action against ECHCG in % (ECHCG [9])	Post-emergence action against DIGSA (DIGSA [10])	Pre-emergence action against SETVI in % (SETVI [11])	Post-emergence action against DIGSA in % (DIGSA [10])	further results
Cc1c(C(=O)Nc2nnnn2C)ccc(C(F)(F)F)c1C(=O)NCC#N [Example 1-36]	100%	100%	100%	90%	100%	–	–	–	–	–	–	–	–	–	–	–	–	–
Cn1nnnc1NC(=O)c1ccc(C(F)F)c(C(=O)NCC#N)c1Cl [Example 1-158]	100%	100%	–	80%	90%	80%	90%	–	–	–	–	–	–	–	–	–	–	Pre-emergence action against VERPE in % (VERPE; dosage 20 g/ha): 80%
CCn1nnnc1NC(=O)c1ccc(C(F)(F)F)c(C(=O)Nc2ccccc2)c1Cl [Example 2-143]	–	100%	100%	80%	–	80%	80%	90%	100%	–	–	–	–	–	–	–	–	Post-emergence action against PHBPU in % (PHBPU): 80%
CCn1nnnc1NC(=O)c1ccc(C(F)F)c(C(=O)NCC#N)c1Cl [Example 2-158]	–	100%	100%	90%	–	–	100%	–	90%	90%	–	–	–	–	–	–	–	Post-emergence action against SETVI in % (SETVI [6]; dosage 5 g/ha): 90%; Pre-emergence action against VERPE in % (VERPE; dosage 20 g/ha): 80%
Cc1nnc(NC(=O)c2ccc(C(F)F)c(C(=O)NCC3CC3)c2C)o1 [Example 6-34]	100%	100%	100%	–	100%	80%	–	–	90%	90%	90%	100%	100%	100%	80%	–	–	Pre-emergence action against ALOMY (herbicidal activity) (ALOMY): 80%; Post-emergence action against ECHCG in % (ECHCG [7]; dosage 5 g/ha): 80%; Post-emergence action against PHBPU in % (PHBPU): 80%; Post-emergence action against ABUTH in % (ABUTH [4]; dosage 5 g/ha): 80%
CNC(=O)c1c(C(F)(F)F)ccc(C(=O)Nc2nnc(C)o2)c1OC [Example 6-43]	–	100%	100%	–	–	–	–	–	80%	90%	–	–	100%	100%	100%	90%	90%	–
CCNC(=O)c1c(C(F)(F)F)ccc(C(=O)Nc2nnc(C)o2)c1OC [Example 6-44]	80%	100%	–	–	90%	80%	–	–	80%	80%	90%	–	–	100%	90%	90%	80%	–
COc1c(C(=O)Nc2nnc(C)o2)ccc(C(F)(F)F)c1C(=O)NC1CC1 [Example 6-45]	80%	100%	90%	–	80%	90%	90%	–	90%	100%	90%	90%	100%	80%	90%	100%	90%	Post-emergence action against ABUTH in % (ABUTH [4]; dosage 5 g/ha): 80%
CCNC(=O)c1c(C(F)F)ccc(C(=O)Nc2nnc(C)o2)c1SC [Example 6-75]	–	–	–	–	–	–	–	–	–	–	–	–	80%	–	90%	–	–	–
Cc1nnc(NC(=O)c2ccc(C(F)F)c(C(=O)NCC(F)(F)F)c2Br)o1 [Example 6-168]	90%	100%	100%	–	100%	–	–	80%	90%	–	80%	–	–	90%	–	90%	–	Pre-emergence action against ALOMY (herbicidal activity) (ALOMY): 80%; Post-emergence action against ECHCG in % (ECHCG [7]; dosage 5 g/ha): 80%; Pre-emergence action against AVEFA in % (AVEFA): 80%
CCc1c(C(=O)Nc2nnc(C)o2)ccc(C(F)(F)F)c1C(=O)NC [Example 6-210]	–	100%	100%	–	100%	90%	90%	80%	90%	100%	80%	100%	100%	90%	90%	100%	90%	Post-emergence action against VIOTR in % (VIOTR [12]): 80%; Post-emergence action against SETVI in % (SETVI [6]; dosage 5 g/ha): 90%
Cc1nnc(NC(=O)c2ccc(C(F)F)c(C(=O)NC3CCC3)c2Cl)o1 [Example 6-261]	100%	100%	100%	–	90%	80%	–	90%	100%	–	90%	80%	100%	100%	90%	100%	–	Pre-emergence action against ABUTH (herbicidal activity in percent) (ABUTH [2]; dosage 20 g/ha, scored visually after 3 weeks vs untreated controls, 100% = plants have died, 0% = like control plants): 80%
COCCNC(=O)c1c(C(F)F)ccc(C(=O)Nc2nnc(C)o2)c1Cl [Example 6-262]	90%	100%	100%	–	90%	90%	90%	–	100%	80%	80%	100%	100%	90%	90%	100%	–	Post-emergence action against ABUTH in % (ABUTH [4]; dosage 5 g/ha): 80%
